Patent publication US5705487A, “Antithrombotic agents” (priority 1995, dated 1998)
Where a name gives a salt, the structure may show the parent alone.

Columns and labels:
Format in all cases: biochemical
Human Thrombin = Human Thrombin (Homo sapiens, UniProt P00734); assay: Inhibition of the amidase activity of thrombin (Kass); conditions: chromogenic substrate N-benzoyl-Phe-Val-Arg-p-nitroanilide; mean over range of concentrations
factor Xa = molecular target: T1, factor Xa (Homo sapiens, UniProt P00742); assay: Kass, factor Xa chromogenic substrate assay; conditions: substrate N-Benzoyl-Ile-Glu-Gly-Arg-p-nitroanilide
T1 construct: Human factors X, Xa, IXa, XIa, and XIIa are purchased; purchased Enzyme Research Laboratories, South Bend, Ind
Experimental: (§3) By substantially following the procedures described above for human thrombin, and using other human blood coagulation system serine proteases and proteases of the fibrinolytic system with the appropriate chromogenic substrates, identified below, selectivity of the compounds of the present invention with respect to the coagulation factor serine proteases and with respect to the fibrinolytic system serine proteases are evaluated as well as their substantial lack of interference with serine proteases of the fibrinolytic system.
Chromogenic substrates: N-Benzoyl-Ile-Glu-Gly-Arg-p-nitroanilide (for factor Xa); N-Cbz-D-Arg-Gly-Arg-p-nitroanilide (for factor IXa assay as the factor Xa substrate); Pyroglutamyl-Pro-Arg-p-nitroanilide (for Factor XIa and for aPC); H-D-Pro-Phe-Arg-p-nitroanilide (for factor XIIa); and Pyroglutamyl-Gly-Arg-p-nitroanilide (for urokinase); are purchased from KabiVirum, Stockholm, Sweden, or from Midwest Biotech, Fishers, Ind. Bovine trypsin is purchased from Worthington Biochemicals, Freehold, N.J., and human plasma kallikrein from Kabi Vitrum, Stockholm, Sweden. […] N-Benzoyl-Phe-Val-Arg-p-nitroanilide, the substrate for human thrombin and for trypsin, is synthesized according to procedures described above for the compounds of the present invention, using known methods of peptide coupling from commercially available reactants or purchased from Midwest Biotech, Fishers, Ind.

Bovine trypsin = molecular target: T2, Bovine trypsin (Bos taurus, UniProt P00760); assay: Kass, trypsin chromogenic substrate assay; conditions: substrate N-Benzoyl-Phe-Val-Arg-p-nitroanilide
T2 construct: Bovine trypsin is purchased from Worthington Biochemicals; purchased Worthington Biochemicals, Freehold, N.J
T2 sequence (P00760 24-246): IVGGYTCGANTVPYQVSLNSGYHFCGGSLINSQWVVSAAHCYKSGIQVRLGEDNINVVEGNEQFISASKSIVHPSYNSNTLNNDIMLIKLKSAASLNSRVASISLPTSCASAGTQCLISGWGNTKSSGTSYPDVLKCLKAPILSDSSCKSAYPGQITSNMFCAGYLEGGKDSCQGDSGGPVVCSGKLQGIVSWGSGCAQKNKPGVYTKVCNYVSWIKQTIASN

Human plasmin = molecular target: T3, Human plasmin (Homo sapiens, UniProt P00747); assay: Kass, plasmin chromogenic substrate assay; conditions: substrate H-D-Val-Leu-Lys-p-nitroanilide
T3 construct: Human plasmin is purchased from Boehringer Mannheim; purchased Boehringer Mannheim, Indianapolis, Ind

t-PA = molecular target: T4, t-PA (Homo sapiens, UniProt P00750); assay: Kass, t-PA chromogenic substrate assay; conditions: substrate H-D-Ile-Pro-Arg-p-nitroanilide
T4 construct: purchased American Diagnostica, Greenwich, Conn
Experimental: as §3
Human plasmin is purchased from Boehringer Mannheim, Indianapolis, Ind.; nt-PA is purchased as single chain activity reference from American Diagnostica, Greenwich, Conn.; modified-t-PA6 (mt-PA6) is prepared at Eli Lilly and Company by procedure known in the art (See, Burck, et al., J. Biol. Chem., 265, 5120-5177 (1990). Plasmin chromogenic substrate H-D-Val-Leu-Lys-p-nitroanilide and tissue plasminogen activator (t-PA) substrate H-D-Ile-Pro-Arg-p-nitroanilide are purchased from Kabi Vitrum, Stockholm, Sweden.

Human Plasma [1] = assay: Human plasma anticoagulation, thrombin time (TT); conditions: concentration required to double the clotting time
Experimental: (§1) Dog plasma and rat plasma is obtained from conscious mixed-breed hounds (either sex, Hazelton-LRE, Kalamazoo, Mich., U.S.A.) or from anesthetized male Sprague-Dawley rats (Harlan Sprague-Dawley, Inc., Indianapolis, Ind., U.S.A.) by venipuncture into 3.8 percent citrate. Fibrinogen is prepared from in-date ACD human blood as the fraction I-2 according to previous procedures and specifications. […] Human fibrinogen is also purchased as 98 percent pure/plasmin free from American Diagnostica, Greenwich, Conn. Coagulation reagents ACTIN, Thromboplastin, and Human plasma are from Baxter Healthcare Corp., Dade Division, Miami, Fla. Bovine thrombin from Parke-Davis ([…], Mich.) is used for coagulation assays in plasma.
(§2) Coagulation assay procedures are as previously described. […] A CoAScreener coagulation instrument (American LABor, Inc.) is used for all coagulation assay measurements. The prothrombin time (PT) is measured by adding 0.05 mL saline and 0.05 mL Thromboplastin-C reagent to 0.05 mL test plasma. The activated partial thromboplastin time (APTT) is measured by incubation of 0.05 mL test plasma with 0.05 mL Actin reagent for 120 seconds followed by 0.05 mL CaCl2 (0.02M). The thrombin time (TT) is measured by adding 0.05 mL saline and 0.05 mL thrombin (10 NIH units/mL) to 0.05 mL test plasma. The compounds of Formula I are added to human or animal plasma over a wide range of concentrations to determine prolongation effects on the APTT, PT, and TT assays. Linear extrapolations are performed to estimate the concentrations required to double the clotting time for each assay.

Human Plasma [2] = assay: Human plasma anticoagulation, activated partial thromboplastin time (APTT); conditions: concentration required to double the clotting time
Experimental: as §1, §2

Human Plasma [3] = assay: Human plasma anticoagulation, prothrombin time (PT); conditions: concentration required to double the clotting time
Experimental: as §1, §2

T4 sequence (P00750 36-562): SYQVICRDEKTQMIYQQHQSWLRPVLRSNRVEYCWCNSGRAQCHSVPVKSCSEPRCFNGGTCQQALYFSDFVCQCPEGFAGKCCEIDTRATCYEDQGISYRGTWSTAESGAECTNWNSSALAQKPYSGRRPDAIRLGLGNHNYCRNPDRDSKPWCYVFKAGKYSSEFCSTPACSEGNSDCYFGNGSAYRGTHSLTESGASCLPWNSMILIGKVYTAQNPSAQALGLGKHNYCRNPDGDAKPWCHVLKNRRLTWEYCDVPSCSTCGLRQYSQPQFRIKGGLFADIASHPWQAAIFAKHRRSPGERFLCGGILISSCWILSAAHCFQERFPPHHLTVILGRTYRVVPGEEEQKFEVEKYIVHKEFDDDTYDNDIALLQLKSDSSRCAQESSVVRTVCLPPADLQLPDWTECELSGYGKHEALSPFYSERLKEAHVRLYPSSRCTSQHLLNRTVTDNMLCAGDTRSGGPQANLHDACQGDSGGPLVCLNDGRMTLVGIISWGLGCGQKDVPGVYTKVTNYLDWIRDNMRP
T3 sequence (P00747 581-810 limits assumed): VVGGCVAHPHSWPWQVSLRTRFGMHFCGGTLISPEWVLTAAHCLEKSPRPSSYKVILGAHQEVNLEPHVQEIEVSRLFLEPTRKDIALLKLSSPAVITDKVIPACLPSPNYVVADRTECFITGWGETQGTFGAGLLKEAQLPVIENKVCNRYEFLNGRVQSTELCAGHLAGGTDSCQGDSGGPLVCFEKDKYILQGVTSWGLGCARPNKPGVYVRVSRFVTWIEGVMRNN
T3 sequence (P00747 97-580 partner limits assumed): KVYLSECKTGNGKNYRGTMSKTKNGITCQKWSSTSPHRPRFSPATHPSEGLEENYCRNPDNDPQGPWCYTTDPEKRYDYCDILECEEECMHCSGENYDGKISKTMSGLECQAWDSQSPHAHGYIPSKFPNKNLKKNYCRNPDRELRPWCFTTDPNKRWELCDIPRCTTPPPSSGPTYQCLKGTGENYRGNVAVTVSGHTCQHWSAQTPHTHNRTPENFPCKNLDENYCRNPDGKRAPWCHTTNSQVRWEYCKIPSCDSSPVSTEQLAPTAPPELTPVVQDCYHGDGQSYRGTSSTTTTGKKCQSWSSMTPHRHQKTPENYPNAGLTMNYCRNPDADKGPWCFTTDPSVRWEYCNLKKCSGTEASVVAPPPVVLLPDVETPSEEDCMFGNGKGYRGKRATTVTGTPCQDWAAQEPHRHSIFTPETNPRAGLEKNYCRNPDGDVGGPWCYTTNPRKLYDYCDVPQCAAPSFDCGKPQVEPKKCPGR
T1 sequence (P00742 235-488 limits assumed): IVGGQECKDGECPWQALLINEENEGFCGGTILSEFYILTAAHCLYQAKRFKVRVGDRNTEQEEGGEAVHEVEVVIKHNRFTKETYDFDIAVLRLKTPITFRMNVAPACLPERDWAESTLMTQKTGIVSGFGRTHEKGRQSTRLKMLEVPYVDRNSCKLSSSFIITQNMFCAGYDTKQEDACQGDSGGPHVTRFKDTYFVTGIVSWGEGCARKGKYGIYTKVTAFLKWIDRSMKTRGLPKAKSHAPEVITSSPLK
T1 sequence (P00742 41-179 partner limits assumed): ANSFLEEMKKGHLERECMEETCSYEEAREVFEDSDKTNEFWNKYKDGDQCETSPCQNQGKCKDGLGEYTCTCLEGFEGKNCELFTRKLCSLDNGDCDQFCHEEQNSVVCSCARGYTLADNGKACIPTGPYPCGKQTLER

Compound: CCOC(=O)N[C@H](Cc1ccccc1)C(=O)N1CCC[C@H]1C(=O)NCCCCN=C(N)N.Cl [Example 3, EtOCO-D-Phe-Pro-Agm.HCl]
- Kass × 10^6 (L/mole) Human Thrombin (Human Thrombin): 2.1 × 10^6 L/mole
- Kass × 10^6 (L/mole) Xa (factor Xa): 0.0021 × 10^6 L/mole
- Kass × 10^6 (L/mole) Trypsin (Bovine trypsin): 0.24 × 10^6 L/mole
- Kass × 10^6 (L/mole) Plasmin (Human plasmin): 0.0046 × 10^6 L/mole
- Kass × 10^6 (L/mole) t-PA (t-PA): 0.033 × 10^6 L/mole
- Human Plasma Anticoagulation 2x Clotting time TT (Human Plasma [1]): 590 ng/mL

Compound: Cl.O=C(O)CN[C@H](CC1CCCCC1)C(=O)N1CCC[C@H]1C(=O)NCC1=CCNCC1 [Example 58, HO2 CCH2 -D-Cha-Pro-4-NHCH2 -3,4-dehydropiperidine.HCl]
- Kass × 10^6 (L/mole) Human Thrombin (Human Thrombin): 0.60 × 10^6 L/mole
- Kass × 10^6 (L/mole) Xa (factor Xa): < 0.001 × 10^6 L/mole
- Kass × 10^6 (L/mole) Trypsin (Bovine trypsin): 0.40 × 10^6 L/mole
- Kass × 10^6 (L/mole) Plasmin (Human plasmin): < 0.001 × 10^6 L/mole
- Kass × 10^6 (L/mole) t-PA (t-PA): < 0.001 × 10^6 L/mole
- Human Plasma Anticoagulation 2x Clotting time TT (Human Plasma [1]): 710 ng/mL
- Human Plasma Anticoagulation 2x Clotting time APTT (Human Plasma [2]): 14,300 ng/mL
- Human Plasma Anticoagulation 2x Clotting time PT (Human Plasma [3]): 11,400 ng/mL

Compound: Cl.O=C(O)CNC(CC1CCCCC1)C(=O)N1CCCC1C(=O)NCCC1CCNCC1 [Example 54, HO2 CCH2 -D-Cha-Pro-4-NHCH2 CH2 -piperidine.HCl]
- Kass × 10^6 (L/mole) Human Thrombin (Human Thrombin): 2.8 × 10^6 L/mole
- Kass × 10^6 (L/mole) Xa (factor Xa): < 0.001 × 10^6 L/mole
- Kass × 10^6 (L/mole) Trypsin (Bovine trypsin): 0.52 × 10^6 L/mole
- Kass × 10^6 (L/mole) Plasmin (Human plasmin): 0.01 × 10^6 L/mole
- Kass × 10^6 (L/mole) t-PA (t-PA): < 0.001 × 10^6 L/mole
- Human Plasma Anticoagulation 2x Clotting time TT (Human Plasma [1]): 140 ng/mL
- Human Plasma Anticoagulation 2x Clotting time APTT (Human Plasma [2]): 3,300 ng/mL
- Human Plasma Anticoagulation 2x Clotting time PT (Human Plasma [3]): 2,200 ng/mL

Compound: N=C(N)N1CCC(CCNC(=O)[C@@H]2CCCN2C(=O)[C@@H](CC2CCCCC2)NCC(=O)O)CC1 [Example 57, HO2 CCH2 -D-Cha-Pro-4-NHCH2 CH2 -1-amidinopiperidine.HCl]
- Kass × 10^6 (L/mole) Human Thrombin (Human Thrombin): 39 × 10^6 L/mole
- Kass × 10^6 (L/mole) Xa (factor Xa): 0.01 × 10^6 L/mole
- Kass × 10^6 (L/mole) Trypsin (Bovine trypsin): 0.24 × 10^6 L/mole
- Kass × 10^6 (L/mole) Plasmin (Human plasmin): 0.01 × 10^6 L/mole
- Kass × 10^6 (L/mole) t-PA (t-PA): < 0.001 × 10^6 L/mole
- Human Plasma Anticoagulation 2x Clotting time TT (Human Plasma [1]): 14 ng/mL
- Human Plasma Anticoagulation 2x Clotting time APTT (Human Plasma [2]): 360 ng/mL
- Human Plasma Anticoagulation 2x Clotting time PT (Human Plasma [3]): 340 ng/mL

Compound: N=C(N)NCc1ccc(CNC(=O)[C@@H]2CCCN2C(=O)[C@H](N)Cc2ccccc2)cc1 [Example 9, D-Phe-Pro-p-NHCH2 -C6 H4 CH2 NHC(NH)NH2.2TFA]
- Kass × 10^6 (L/mole) t-PA (t-PA): < 0.001 × 10^6 L/mole

Compound: N=C(N)NCCCNC(=O)[C@@H]1CCCN1C(=O)[C@H](N)Cc1ccccc1 [Example 7, D-Phe-Pro-NH(CH2)3 NHC(NH)NH2.HCl]
- Kass × 10^6 (L/mole) Human Thrombin (Human Thrombin): 1.9 × 10^6 L/mole
- Kass × 10^6 (L/mole) Xa (factor Xa): 0.0041 × 10^6 L/mole
- Kass × 10^6 (L/mole) Trypsin (Bovine trypsin): 0.0081 × 10^6 L/mole
- Kass × 10^6 (L/mole) Plasmin (Human plasmin): 0.00022 × 10^6 L/mole
- Kass × 10^6 (L/mole) t-PA (t-PA): 0.0037 × 10^6 L/mole
- Human Plasma Anticoagulation 2x Clotting time TT (Human Plasma [1]): 490 ng/mL

Compound: HOOCCH2 -D-Phe-Pro(4-cis-isoamyl)-p-NHCH2 C6 H4 C(NH)NH2.HCl [Example 50]
- Kass × 10^6 (L/mole) Human Thrombin (Human Thrombin): 40 × 10^6 L/mole
- Kass × 10^6 (L/mole) Xa (factor Xa): 4.3 × 10^6 L/mole
- Kass × 10^6 (L/mole) Plasmin (Human plasmin): 1.8 × 10^6 L/mole
- Kass × 10^6 (L/mole) t-PA (t-PA): 0.04 × 10^6 L/mole
- Human Plasma Anticoagulation 2x Clotting time TT (Human Plasma [1]): 35 ng/mL
- Human Plasma Anticoagulation 2x Clotting time APTT (Human Plasma [2]): 460 ng/mL
- Human Plasma Anticoagulation 2x Clotting time PT (Human Plasma [3]): 420 ng/mL

Compound: CCS(=O)(=O)N[C@H](Cc1ccccc1)C(=O)N1CCC[C@H]1C(=O)NCc1cccc(C(=N)N)c1 [Example 24, EtSO2 -D-Phe-Pro-m-NHCH2 -C6 H4 C(=NH)NH2.HCl]
- Kass × 10^6 (L/mole) Plasmin (Human plasmin): < 0.001 × 10^6 L/mole
- Kass × 10^6 (L/mole) t-PA (t-PA): < 0.001 × 10^6 L/mole

Compound: Cl.Nc1ccc(CCNC(=O)[C@@H]2CCCN2C(=O)[C@H](N)Cc2ccccc2)cc1 [Example 14, D-Phe-Pro-P-NHCH2 CH2 C6 H4 NH2.HCl]
- Kass × 10^6 (L/mole) Human Thrombin (Human Thrombin): 0.021 × 10^6 L/mole
- Kass × 10^6 (L/mole) Xa (factor Xa): 0.00014 × 10^6 L/mole
- Kass × 10^6 (L/mole) Trypsin (Bovine trypsin): 0.000056 × 10^6 L/mole
- Kass × 10^6 (L/mole) Plasmin (Human plasmin): 0.000046 × 10^6 L/mole
- Kass × 10^6 (L/mole) t-PA (t-PA): < 0.001 × 10^6 L/mole
- Human Plasma Anticoagulation 2x Clotting time TT (Human Plasma [1]): 21,000 ng/mL

Compound: N=C(N)Nc1cccc(CNC(=O)[C@@H]2CCCN2C(=O)[C@@H]2NCC[C@@H]3CCCC[C@@H]32)c1 [Example 40, D-1-Piq-Pro-m-NHCH2 C6 H4 NHC(NH)NH2.2HCl]
- Kass × 10^6 (L/mole) Human Thrombin (Human Thrombin): 0.03 × 10^6 L/mole
- Kass × 10^6 (L/mole) Xa (factor Xa): < 0.001 × 10^6 L/mole
- Kass × 10^6 (L/mole) Trypsin (Bovine trypsin): 0.01 × 10^6 L/mole
- Kass × 10^6 (L/mole) Plasmin (Human plasmin): < 0.001 × 10^6 L/mole
- Human Plasma Anticoagulation 2x Clotting time TT (Human Plasma [1]): 35,100 ng/mL
- Human Plasma Anticoagulation 2x Clotting time APTT (Human Plasma [2]): > 91,000 ng/mL
- Human Plasma Anticoagulation 2x Clotting time PT (Human Plasma [3]): > 91,000 ng/mL

Compound: Cl.NCc1cccc(CNC(=O)[C@@H]2CCCN2C(=O)[C@H](N)Cc2ccccc2)c1 [Example 11, D-Phe-Pro-m-NHCH2 C6 H4 CH2 NH2.HCl]
- Kass × 10^6 (L/mole) Human Thrombin (Human Thrombin): 0.064 × 10^6 L/mole
- Kass × 10^6 (L/mole) Xa (factor Xa): 0.000068 × 10^6 L/mole
- Kass × 10^6 (L/mole) Trypsin (Bovine trypsin): 0.0036 × 10^6 L/mole
- Kass × 10^6 (L/mole) Plasmin (Human plasmin): 0.0060 × 10^6 L/mole
- Kass × 10^6 (L/mole) t-PA (t-PA): < 0.001 × 10^6 L/mole
- Human Plasma Anticoagulation 2x Clotting time TT (Human Plasma [1]): 8,800 ng/mL

Compound: O=C(O)CN[C@H](CC1CCCCC1)C(=O)N1CCC[C@H]1C(=O)NCC1CCNCC1 [Example 53, HO2 CCH2 -D-Cha-Pro-4-NHCH2 -piperidine.HCl]
- Kass × 10^6 (L/mole) Plasmin (Human plasmin): < 0.001 × 10^6 L/mole
- Kass × 10^6 (L/mole) t-PA (t-PA): < 0.001 × 10^6 L/mole

Compound: N=C(N)Nc1cccc(CCNC(=O)[C@@H]2CCCN2C(=O)[C@@H]2NCC[C@@H]3CCCC[C@@H]32)c1 [Example 41, D-1-Piq-Pro-m-NHCH2 CH2 C6 H4 NHC(NH)NH2.2HCl]
- Kass × 10^6 (L/mole) Human Thrombin (Human Thrombin): 0.01 × 10^6 L/mole
- Kass × 10^6 (L/mole) Xa (factor Xa): < 0.001 × 10^6 L/mole
- Kass × 10^6 (L/mole) Trypsin (Bovine trypsin): < 0.001 × 10^6 L/mole
- Kass × 10^6 (L/mole) Plasmin (Human plasmin): < 0.001 × 10^6 L/mole
- Human Plasma Anticoagulation 2x Clotting time TT (Human Plasma [1]): 82,200 ng/mL
- Human Plasma Anticoagulation 2x Clotting time APTT (Human Plasma [2]): > 91,000 ng/mL
- Human Plasma Anticoagulation 2x Clotting time PT (Human Plasma [3]): > 91,000 ng/mL

Compound: Cl.NC[C@H]1CC[C@H](CNC(=O)[C@@H]2CCCN2C(=O)[C@H](N)Cc2ccccc2)CC1 (relative stereo) [Example 12, D-Phe-Pro-NHCH2 -trans-4-(aminomethyl)cyclohexane.HCl]
- Kass × 10^6 (L/mole) Human Thrombin (Human Thrombin): 0.44 × 10^6 L/mole
- Kass × 10^6 (L/mole) Xa (factor Xa): 0.000042 × 10^6 L/mole
- Kass × 10^6 (L/mole) Trypsin (Bovine trypsin): 0.0022 × 10^6 L/mole
- Kass × 10^6 (L/mole) Plasmin (Human plasmin): 0.00087 × 10^6 L/mole
- Kass × 10^6 (L/mole) t-PA (t-PA): 0.000042 × 10^6 L/mole
- Human Plasma Anticoagulation 2x Clotting time TT (Human Plasma [1]): 1,700 ng/mL
